For this assay, the system named is HIV-1 (NL4-3 strain). Kind of assay: Assay for inhibition of HIV replication (ViKinG; infected MT4-GFP cells). Type of assay: cell-based. How it is done:
Assay for inhibition of HIV replication
MT4-GFP cells (250,000 cells/ml) were bulk-infected with HIV-1 (NL4-3 strain) at low multiplicity of infection (MOI) in RPMI+10% FBS for 24 hours. […] Test compounds were serial-diluted in DMSO on ECHO. The infected MT4-GFP cells were added to a 384-well poly-D-lysine coated black plate with clear bottom in which the diluted test compounds were placed. The cells were seeded at 8,000 cells per well and the final DMSO concentration was 0.4%. The infected cells (Green GFP cells) were quantified at both 24 and 48 hours post incubation using Acumen eX3. Viral reproductive ratio (R0) was determined using the number of infected cells at 48 hours divided by the number of infected cells at 24 hours. Percent viral growth inhibition was calculated by [1−(R−Rtripledrug)/(RDMSO−Rtripledrug)]*100. Compound potency IP or IC50 was determined by a 4-parameter dose response curve analysis.

[1] abbreviates: Human immunodeficiency virus 1, NL43, MT4-GFP cells infected with HIV-1 NL4-3, 0% normal human serum (NHS), read-out: ViKinG IP (nM) with 0% NHS.
[2] abbreviates: Human immunodeficiency virus 1, NL43, MT4-GFP cells infected with HIV-1 NL4-3, 10% normal human serum (NHS), read-out: ViKinG IP (nM) with 10% NHS.
The mark [3] stands for this setting: Human immunodeficiency virus 1, NL43, MT4-GFP cells infected with HIV-1 NL4-3, 100% normal human serum (NHS), read-out: ViKinG IP (nM) with 100% NHS.
Where [4] appears, read: MT4-GFP cells infected with HIV-1 NL4-3, 10% normal human serum (NHS), read-out: ViKinG IP (nM) with 10% NHS.
The mark [5] stands for this setting: MT4-GFP cells infected with HIV-1 NL4-3, 0% normal human serum (NHS), read-out: ViKinG IP (nM) with 0% NHS.
The mark [6] stands for this setting: MT4-GFP cells infected with HIV-1 NL4-3, 100% normal human serum (NHS), read-out: ViKinG IP (nM) with 100% NHS.

Where two headings read alike, the source gives them in different places.

Turning to `CCN1C(=O)c2c(O)c(=O)c(-c3nnc(Cc4ccc(F)cc4F)s3)cn2N(C)C1CC(C)=O` (racemic) [Compound 40], the IC50 turned out to be 2.53 nM under setting [1] and 374 nM under setting [2].
With `CN1C2CCCN2C(=O)c2c(O)c(=O)c(-c3nnc(Cc4ccc(F)cc4F)s3)cn21` (racemic) [Compound 155], the IC50 under setting [2] was 48.7 nM and the IC50 under setting [3] came to 304 nM.
As for `COCCN1C(=O)c2c(O)c(=O)c(C(=O)NCc3ccc(F)cc3)cn2[C@@H](C)C12CC2` [Compound 184], the IC50 reads like this: under setting [1], 2.66 nM; under setting [3], 178 nM.
As to `CCN1C(=O)c2c(O)c(=O)c(-c3nnc(Cc4ccc(F)cc4F)s3)cn2N(C)C12CC[C@@H](C(=O)OC)[C@H](C)C2` (stereo partly drawn) [Compound 32], the IC50 under setting [2] worked out at 21.1 nM.
Regarding `CCN1C(=O)c2c(O)c(=O)c(-c3nnc(Cc4ccc(F)cc4F)s3)cn2N(C)C12CC[C@@H]1C[C@@H]12` (stereo partly drawn) [Compound 39], the IC50 amounted to 0.213 nM under setting [1] and 77.7 nM under setting [2].
For `CC(C)[C@]1(C(=O)NC2CC2)CCC2(C1)N(C)C(=O)c1c(O)c(=O)c(-c3nnc(Cc4ccc(F)cc4F)s3)cn1N2C` (stereo partly drawn) [Compound 144], the IC50 worked out at 10.7 nM under setting [1] and 205 nM under setting [3].
On to `CCN1C(=O)c2c(O)c(=O)c(-c3nnc(Cc4ccc(F)cc4F)s3)cn2N(C)C12CCC1(CCC(=O)N1)CC2` (stereo not drawn) [Compound 23], for which, under setting [4], the IC50 was 466 nM.
For the compound `CCN1C(=O)c2c(O)c(=O)c(-c3nnc(Cc4ccc(F)cc4F)s3)cn2N(C)C12CCC(C)(OC)CC2` (stereo not drawn) [Compound 59], the IC50 reads like this: under setting [1], 8.66 nM; under setting [3], 124 nM.
On to `CCN1C(=O)c2c(O)c(=O)c(-c3nnc(Cc4ccc(F)cc4F)s3)cn2N(C)C12CCC(OCCOC)CC2` (stereo not drawn) [Compound 65], for which the IC50 came out at 6.27 nM under setting [5] and 123 nM under setting [6].
In the case of `CN1C(=O)c2c(O)c(=O)c(-c3nnc(Cc4ccc(F)cc4F)s3)cn2N(C)C12CCC(C(=O)N1CC(F)(F)C1)CC2` (stereo not drawn) [Compound 120], the IC50 runs as follows: under setting [5], 5.51 nM; under setting [4], 11.7 nM; under setting [6], 516 nM.
On to `CN1C(=O)c2c(O)c(=O)c(-c3nnc(Cc4ccc(F)cc4F)s3)cn2N(C)C12CCCc1occc12` (racemic) [Compound 78], for which the IC50 reads like this: under setting [1], 10.7 nM; under setting [2], 93 nM.
Regarding `CC1CCC2N1C(=O)c1c(O)c(=O)c(-c3nnc(Cc4ccc(F)cc4F)s3)cn1N2C` (stereo not drawn) [Compound 156], the IC50 reads like this: under setting [2], 26.7 nM; under setting [3], 989 nM.
Consider `CN1C(=O)c2c(O)c(=O)c(-c3nnc(Cc4ccc(F)cc4)s3)cn2N(C)C12CCC(O)CC2` (stereo not drawn) [Compound 13], for which the IC50 turned out to be 23.8 nM under setting [5], 86.9 nM under setting [4] and 862 nM under setting [6].
For the compound `CCN1C(=O)c2c(O)c(=O)c(-c3nnc(Cc4ccc(F)cc4F)s3)cn2N(C)C12CCC(C(=O)N(C)CC(F)(F)F)CC2` (stereo not drawn) [Compound 103], the IC50 by setting is: under setting [5], 6.88 nM; under setting [6], 143 nM.
For the compound `CCOP(=O)(OCC)C1CCC2(C1)N(CC)C(=O)c1c(O)c(=O)c(-c3nnc(Cc4ccc(F)cc4F)s3)cn1N2C` (stereo not drawn) [Compound 38], under setting [4], the IC50 came out at 95.4 nM.
In the case of `COCCN1C(=O)c2c(O)c(=O)c(-c3cn(Cc4ccc(F)cc4F)nn3)cn2CC12CCC2` [Compound 214], the IC50 by setting is: under setting [1], 24.4 nM; under setting [3], 205 nM.
For `CCOC(=O)C1CC2(CC1(C)C)N(CC)C(=O)c1c(O)c(=O)c(-c3nnc(Cc4ccc(F)cc4F)s3)cn1N2C` (stereo not drawn) [Compound 35], the IC50 under setting [2] was 100 nM.
Regarding `CN1C2C(O)CCCN2C(=O)c2c(O)c(=O)c(-c3nnc(Cc4ccc(F)cc4F)s3)cn21` (stereo not drawn) [Compound 164], the IC50 came out at 3.48 nM under setting [5] and 82.2 nM under setting [6].
Consider `CN1C(=O)c2c(O)c(=O)c(-c3nnc(Cc4ccc(F)cc4)s3)cn2N(C)C12CCC(O)CC2` (stereo not drawn) [Compound 14], for which the IC50 turned out to be 5.37 nM under setting [5], 18.8 nM under setting [4] and 198 nM under setting [6].
Consider `CN1C(=O)c2c(O)c(=O)c(-c3nnc(Cc4ccc(F)cc4F)s3)cn2N(C)C12CC[C@@H]1C[C@@]12CO` (mixture of isomers) [Compound 200], for which the IC50 was found to be 2.04 nM under setting [5] and 66.7 nM under setting [6].
